In data set [1] the target is T1, Melanin-concentrating hormone receptor 1 (Homo sapiens, UniProt Q99705). Put plainly: Displacement of[125I]MCH from human MCH1R expressed in CHO cells. The class given is cell-based.
The target of data set [2] is Melanin-concentrating hormone receptor 2 (Homo sapiens, UniProt Q969V1). Description: Displacement of [35S] 4-(1-(3,4-difluorophenyl)-2-(ethyl(3-(6-fluoro-3H-spiro[isobenzofuran-1,4'-piperidine]-1'-yl)propyl)amino)-2-oxoethyl)-3-oxopiperazine-1-sulfonic acid from human MCH2R. A general note: Loss of bound radioactivity is the signal in a displacement assay; it reports binding, not function.
Melanin-concentrating hormone receptor 2, sequence (Q969V1 whole entry): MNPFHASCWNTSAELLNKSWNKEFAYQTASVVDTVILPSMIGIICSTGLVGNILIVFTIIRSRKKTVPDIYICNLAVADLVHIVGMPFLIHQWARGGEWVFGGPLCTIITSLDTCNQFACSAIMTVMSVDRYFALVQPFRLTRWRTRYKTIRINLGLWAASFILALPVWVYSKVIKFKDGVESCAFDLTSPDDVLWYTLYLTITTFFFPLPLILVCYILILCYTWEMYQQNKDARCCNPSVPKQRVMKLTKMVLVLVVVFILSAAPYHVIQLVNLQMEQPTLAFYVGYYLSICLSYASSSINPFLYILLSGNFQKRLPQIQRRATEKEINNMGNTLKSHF

In data set [3] the target is Melanin-concentrating hormone receptor 1 (Mus musculus, UniProt Q8JZL2). Description: Displacement of [35S] 4-(1-(3,4-difluorophenyl)-2-(ethyl(3-(6-fluoro-3H-spiro[isobenzofuran-1,4'-piperidine]-1'-yl)propyl)amino)-2-oxoethyl)-3-oxopiperazine-1-sulfonic acid from mouse MCH1R.
Melanin-concentrating hormone receptor 1 (Mus musculus, UniProt Q8JZL2), sequence (Q8JZL2 whole entry): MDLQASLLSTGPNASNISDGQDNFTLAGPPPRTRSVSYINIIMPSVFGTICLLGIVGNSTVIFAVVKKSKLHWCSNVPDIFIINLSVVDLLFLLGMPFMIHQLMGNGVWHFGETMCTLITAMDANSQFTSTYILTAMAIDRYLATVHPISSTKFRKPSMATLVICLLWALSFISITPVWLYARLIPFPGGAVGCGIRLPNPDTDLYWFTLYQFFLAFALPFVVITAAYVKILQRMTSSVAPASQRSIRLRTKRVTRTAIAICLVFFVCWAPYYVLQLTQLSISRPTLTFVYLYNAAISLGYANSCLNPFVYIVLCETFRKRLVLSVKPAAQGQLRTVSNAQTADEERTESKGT
Data set [4] addresses T1, Melanin-concentrating hormone receptor 1. Description: Displacement of [35S] 4-(1-(3,4-difluorophenyl)-2-(ethyl(3-(6-fluoro-3H-spiro[isobenzofuran-1,4'-piperidine]-1'-yl)propyl)amino)-2-oxoethyl)-3-oxopiperazine-1-sulfonic acid from human MCH1R.
Data set [5] has the same target. Put plainly: Binding affinity to human MCH1R expressed in CHO cells by scintillation counting per mg of protein. The class given is cell-based.
The target of data set [6] is Melanin-concentrating hormone receptor 1 (Mus musculus) (UniProt Q8JZL2). Put plainly: Binding affinity to MCH1R in wild type mouse coronal slice […] at 500 pM by radioactivity study. The settings on record: tested as the 35S-labelled form.
Melanin-concentrating hormone receptor 1 (Mus musculus), sequence (Q8JZL2 whole entry): as above
Data set [7] can be described thus: Lipophilicity, log D at pH 7.4. In kind it is physicochemical. The settings on record: buffer.

pIC50, pKi: −log10 of the molar value. Calls of active or inactive are those of the source. The calls are words filed in the database; no cut-off is given here. Bridge positions count the residues as written; N and C are the ends. Peptide text beside a SMILES is read from it. * marks the point of attachment. X2 = NC(=O)CC[C@@H](CN[C@@H](Cc1ccc(O)c(I)c1)C(=O)O)N*; X1 = NC(=O)CC[C@@H](CN[C@@H](Cc1ccc(O)cc1)C(=O)O)N* A value given as a limit tells only on which side of the number the result lay.

This note sets out measurements from ChEMBL document CHEMBL1152905, “Identification and characterization of a selective radioligand for melanin-concentrating hormone 1-receptor (MCH1R)” (Bioorg Med Chem Lett, 2009).

T1 sequence (Q99705 whole entry): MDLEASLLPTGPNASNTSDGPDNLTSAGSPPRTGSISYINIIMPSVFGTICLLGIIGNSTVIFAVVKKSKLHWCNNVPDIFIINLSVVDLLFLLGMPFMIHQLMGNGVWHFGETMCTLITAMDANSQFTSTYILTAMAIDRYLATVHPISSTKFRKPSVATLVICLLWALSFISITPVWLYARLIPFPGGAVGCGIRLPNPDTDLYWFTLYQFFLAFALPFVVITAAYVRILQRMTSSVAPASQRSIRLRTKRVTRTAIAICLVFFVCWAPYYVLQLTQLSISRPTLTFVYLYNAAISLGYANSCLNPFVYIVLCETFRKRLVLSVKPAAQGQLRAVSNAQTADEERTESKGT

For orientation: pIC50 means the IC50 on a negative log10 scale, so that one unit is a factor of ten. A high value points to a low IC50. Molecule `CCN(CCCN1CCC2(CC1)OCc1ccc(F)cc12)C(=O)C(c1ccc(F)c(F)c1)N1CCN(C(=O)OC(C)(C)C)CC1=O` (stereo in doubt; 5b) had a pIC50 in data set [1] of 6.84.
On the same count and under the same terms, then `CCN(CCCN1CCC2(CC1)OCc1ccc(F)cc12)C(=O)C(c1ccc(F)c(F)c1)N1CCCC1=O` (centres undefined), with 9.15.
In general, pKi refers to the Ki on a negative log10 scale, so that one unit is a factor of ten. Lower therefore signals a high Ki. Regarding `CCN(CCCN1CCC2(CC1)OCc1ccc(F)cc12)C(=O)C(c1ccc(F)c(F)c1)N1CCN([35S](C)(=O)=O)CC1=O` (centres undefined), the negative logarithm of the Ki (pKi) was < 5.01 in data set [2] and 9.30 in data set [3].
`CSCC[C@@H]1NC(=O)[C@@H](NC(=O)[C@H](CCCNC(=N)N)NC(=O)[C@H](CC(C)C)NC(=O)[C@H](CCSC)NC(=O)[C@H](CC(=O)O)NC(=O)[C@H](Cc2ccccc2)NC(=O)[C@@H](N)CC(=O)O)CSSC[C@@H](C(=O)N[C@@H](Cc2c[nH]c3ccccc23)C(=O)N[C@@H](CCC(N)=O)CN[C@@H](Cc2ccc(O)cc2)C(=O)O)NC(=O)[C@@H]2CCCN2C(=O)[C@H](CCCNC(=N)N)NC(=O)[C@H](Cc2ccccc2)NC(=O)[C@H](C(C)C)NC(=O)[C@H](CCCNC(=N)N)NC(=O)CNC(=O)[C@H](CC(C)C)NC1=O` (H-DFDMLRCMLGRVFRPCW-X1; disulfide 7-16): the negative-log Ki (pKi) in data set [2] is 8.80; in data set [4] it was 10.47; in data set [3], 10.28.
`CSCC[C@@H]1NC(=O)[C@@H](NC(=O)[C@H](CCCNC(=N)N)NC(=O)[C@H](CC(C)C)NC(=O)[C@H](CCSC)NC(=O)[C@H](CC(=O)O)NC(=O)[C@H](Cc2ccccc2)NC(=O)[C@@H](N)CC(=O)O)CSSC[C@@H](C(=O)N[C@@H](Cc2c[nH]c3ccccc23)C(=O)N[C@@H](CCC(N)=O)CN[C@@H](Cc2ccc(O)c(I)c2)C(=O)O)NC(=O)[C@@H]2CCCN2C(=O)[C@H](CCCNC(=N)N)NC(=O)[C@H](Cc2ccccc2)NC(=O)[C@H](C(C)C)NC(=O)[C@H](CCCNC(=N)N)NC(=O)CNC(=O)[C@H](CC(C)C)NC1=O` (H-DFDMLRCMLGRVFRPCW-X2; disulfide 7-16): the Bmax in data set [5] (tested as the 125I-labelled form) stood at 24 pmol.
Consider `CCN(CCCN1CCC2(CC1)OCc1ccc(F)cc12)C(=O)C(c1ccc(F)c(F)c1)N1CCNCC1=O` (centres undefined), for which the pIC50 in data set [1] was 9.06.
With `CCN(CCCN1CCC2(CC1)OCc1ccc(F)cc12)C(=O)C(c1ccc(F)c(F)c1)N1CCN(S(C)(=O)=O)CC1=O` (centres undefined), the result in data set [6] was Active. In addition, the Bmax in data set [5] (tested as the 35S-labelled form) came to 23 pmol.
Molecule `CCN(CCCN1CCC2(CC1)OCc1ccc(F)cc12)C(=O)C(c1ccc(F)c(F)c1)N1CCN(C(=O)OC(C)(C)C)CC1=O` (stereo in doubt; 5a) gave a pIC50 in data set [1] of 9.62.
Usually logD stands for lipophilicity at a set pH, counting ionised and neutral species. `CN(CCCN1CCC2(CC1)OCc1ccccc12)C(=O)C(c1ccc(F)c(F)c1)N1CCCC1=O` (centres undefined): the logD in data set [7] was found to be 2.2. This molecule gave a pIC50 in data set [1] of 8.57.
